Source: patent publication US11833228B2, “Fluorinated beta-hydroxybutyric acids for PET imaging” (The Governors of the University of Alberta, priority 2019, dated 2023)

Assays:
[1] = system: MDA-MB231 breast cancer xenografts; assay: Dynamic PET imaging of radiotracer uptake in MDA-MB231 tumor-bearing mice; format: in vivo, NIH-III nude mice; conditions: for SUV mean, Harderian glands / SUV mean, brain / SUV mean, heart / SUV mean, joint / SUV mean, kidneys / SUV mean, liver / SUV mean, muscle / SUV mean, spine / SUV mean, tumor: 60 min
Protocol: (§1) Normal BALB/c mice or breast cancer xenografts were used for the PET imaging experiments. Human MDA-MB231 cells (3-5×10^6 cells in 100 μL PBS) were injected subcutaneously into 8-12 weeks old anesthetized female NIH-III nude mice (Charles River, Saint-Constant, QC, Canada). Tumors were grown for 3-4 weeks, reaching sizes of 300-500 mm^3. For fasting experiments, the food was removed from the mice for 24 h prior to the PET experiment.
(§2) Mice were anesthetized with isoflurane (40% O2/60% N2) and their body temperature was kept constant at 37° C. They were positioned and immobilized in prone position into the centre of the field of view of an INVEON® PET scanner (Siemens Preclinical Solutions, Knoxville, TN, USA). A transmission scan for attenuation correction was not acquired. Radioactivity present in the injection solution (0.5 mL insulin syringe) was determined using a dose calibrator (Atomlab™ 300, Biodex Medical Systems, New York, NY, USA). After the emission scan was started, radioactivity (4-8 MBq in 100-150 μL saline) was injected with a delay of ˜15 s through a tail vein catheter. Dynamic PET data acquisition was performed in 3D list mode for 60 min. Dynamic list mode data were sorted into sinograms with 54 time frames (10×2 s, 8×5 s, 6×10 s, 6×20 s, 8×60 s, 10×120 s, 5×300 s). Frames were reconstructed using the maximum a posteriori (MAP) reconstruction mode. No correction for partial volume effects was performed. Image files were further processed using the ROVER v2.0.51 software (ABX GmbH, Radeberg, Germany). Masks defining 3D ROI were set and defined by 50% thresholding. Mean standardized uptake values [SUV=(activity/mL tissue)/(injected activity/body weight) were calculated for each ROI. Time-activity curves (TAC) were generated from the dynamic scans using GraphPad® Prism 5.04 (GraphPad Software, La Jolla, CA, USA).
(§3) All semi-quantified PET data are expressed as means±SEM. Where applicable, statistical differences were tested by unpaired Student's t test and were considered significant for p<0.05 (*), p<0.01 (**) and p<0.001 (***).

[2] = system: subcutaneous MCF-7 breast cancer tumor; assay: Dynamic PET imaging of radiotracer uptake in MCF-7 tumor-bearing mice; format: in vivo
Protocol: as §2, §3

normal BALB/c mice = assay: Dynamic PET scans of normal BALB/c mice; format: in vivo; conditions: dynamic PET over 30 minutes; for clearance pathway: FIG. 4A; for heart and brain uptake and retention: FIG. 4A-C
Protocol: as §1
as §2, with “Dynamic PET data acquisition was performed in 3D list mode for 60 min.” left out
as §3

Structure (SMILES) | SUV mean, Harderian glands ([1]; n=3, 24 h fasted) | SUV mean, brain ([1]; n=3, 24 h fasted) | SUV mean, heart ([1]; n=3, 24 h fasted) | SUV mean, joint ([1]; n=3, 24 h fasted) | SUV mean, kidneys ([1]; n=3, 24 h fasted) | SUV mean, liver ([1]; n=3, 24 h fasted) | SUV mean, muscle ([1]; n=3, 24 h fasted) | SUV mean, spine ([1]; n=3, 24 h fasted) | SUV mean, tumor ([1]; n=3, 24 h fasted) | SUV mean, Harderian glands ([1]; n=3, fed (unfasted)) | SUV mean, brain ([1]; n=3, fed (unfasted)) | SUV mean, heart ([1]; n=3, fed (unfasted)) | SUV mean, joint ([1]; n=3, fed (unfasted)) | SUV mean, kidneys ([1]; n=3, fed (unfasted)) | SUV mean, liver ([1]; n=3, fed (unfasted)) | SUV mean, muscle ([1]; n=3, fed (unfasted)) | SUV mean, spine ([1]; n=3, fed (unfasted)) | SUV mean, tumor ([1]; n=3, fed (unfasted)) | clearance pathway (normal BALB/c mice) | heart and brain uptake and retention (normal BALB/c mice) | also measured
O=C(O)C[C@@H](O)C[18F] [(R)[^18F]FBHB, (R)-[^18F]γ-fluoro-β-hydroxybutyric acid] | 1.39 ± 0.11 ^n.s. | 1.02 ± 0.05 ^n.s. | 0.95 ± 0.03 ^n.s. | 1.58 ± 0.02 ^p=0.0501 | 2.36 ± 0.25 ^n.s. | 0.74 ± 0.02 ^n.s. | 0.54 ± 0.02 | 1.56 ± 0.03 * | 0.89 ± 0.05 * | 1.56 ± 0.13 | 0.91 ± 0.07 | 0.84 ± 0.09 | 1.30 ± 0.10 | 1.96 ± 0.17 | 0.66 ± 0.08 | 0.50 ± 0.05 | 1.39 ± 0.03 | 0.77 ± 0.06 | renal clearance pathway | moderate heart and brain uptake and retention | MDA-MB-231 tumor and muscle uptake, 24 hour fast versus fed state (time activity curves) ([1]; FIGS. 9B-C): statistically significant increase in uptake; tumor retention in mice fed a glucose-free, fructose-based diet (SUV ratio versus time) ([1]; MDA-MB231 tumors, FIG. 7): higher; retention in tumor tissue compared to muscle tissue ([1]; subcutaneous MDA-MB231 tumor, FIG. 3A, 3C): higher retention in tumor tissue as compared to muscle tissue; brain uptake after 24 hour fast versus fed (SUV ratio versus time) ([2]; MCF7 tumor-bearing mice, FIG. 6A): increased; heart uptake after 24 hour fast versus fed (SUV ratio versus time) ([2]; MCF7 tumor-bearing mice, FIG. 6B): increased; tumor retention after 24 hour fast versus fed (SUV ratio versus time) ([2]; MCF7 tumor-bearing mice, FIG. 6C): better tumor retention; retention in tumor tissue compared to muscle tissue ([2]; subcutaneous MCF-7 tumor, FIG. 3A-B): higher retention in tumor tissue as compared to muscle tissue
O=C(O)C[C@H](O)C[18F] [(S)[^18F]FBHB, (S)-[^18F]γ-fluoro-β-hydroxybutyric acid] | 1.15 ± 0.02 | 1.17 ± 0.02 * | 1.05 ± 0.02 * | 1.07 ± 0.08 | 1.38 ± 0.16 | 0.80 ± 0.02 * | 0.60 ± 0.03 | 1.13 ± 0.04 | 0.95 ± 0.04 | 1.10 ± 0.01 | 1.08 ± 0.02 | 0.96 ± 0.01 | 1.10 ± 0.08 | 1.44 ± 0.05 | 0.74 ± 0.01 | 0.57 ± 0.01 | 1.10 ± 0.07 | 0.91 ± 0.02 | renal clearance pathway | moderate heart and brain uptake and retention | visibility of xenograft tumors by PET imaging ([1]; intravenous administration, preliminary studies, FIGS. 8A-B and 9A-C): xenograft tumors were visible by PET imaging; tumor uptake compared with muscle uptake, comparison of isomers ([1]; subcutaneous MDA-MB-231 xenograft, FIG. 8B): higher uptake; brain retention, comparison of isomers (normal BALB/c mice; FIG. 4A lower panel): brain retention highest for the S isomer
